Compound | melting point [°C]
COc1cc2c(-c3cc4c(C#N)ccnc4[nH]3)cn(CCN3CCN(C)CC3)c2cc1OC [Example 102, 2-{5,6-dimethoxy-1-[2-(4-methylpiperazin-1-yl)ethyl]-1H-indol-3-yl}-1H-pyrrolo[2,3-b]pyridine-4-carbonitrile] | 196
COc1cc2c(-c3cc4cc(F)cnc4[nH]3)cn(CCN3CCOCC3)c2cc1OC [Example 105, 2-[5,6-dimethoxy-1-(2-morpholin-4-ylethyl)-1H-indol-3-yl]-5-fluoro-1H-pyrrolo[2,3-b]pyridine] | 205 to 210
COc1cc2c(-c3cc4cc(Cl)cnc4[nH]3)cn(C)c2cc1OC [Example 103, 5-chloro-2-(5,6-dimethoxy-1-methyl-1H-indol-3-yl)-1H-pyrrolo[2,3-b]pyridine] | 192
COc1cc2c(-c3cc4c(Cl)ccnc4[nH]3)cn(CCN3CCOCC3)c2cc1OC [Example 99, 4-chloro-2-[5,6-dimethoxy-1-(2-morpholin-4-ylethyl)-1H-indol-3-yl]-1H-pyrrolo[2,3-b]pyridine] | 240
COc1cc(OC)c2c(c1)c(-c1cc3cccnc3[nH]1)cn2C [Example 175, 2-(5,7-Dimethoxy-1-methyl-1H-indol-3-yl)-1H-pyrrolo[2,3-b]pyridine] | 220
COc1cc2c(-c3cc4cc(F)cnc4[nH]3)cn(C)c2cc1OC [Example 104, 2-(5,6-dimethoxy-1-methyl-1H-indol-3-yl)-5-fluoro-1H-pyrrolo[2,3-b]pyridine] | 283
COc1cc2c(-c3cc4c(Cl)ccnc4[nH]3)cn(CCN3CCC(CCO)CC3)c2cc1OC [Example 100, 2-(1-{2-[3-(4-chloro-1H-pyrrolo[2,3-b]pyridin-2-yl)-5,6-dimethoxyindol-1-yl]ethyl}piperidin-4-yl)ethanol] | 200
COc1cc2c(-c3cc4cc(F)cnc4[nH]3)cn(CCN3CCN(C)CC3)c2cc1OC [Example 106, 2-{5,6-Dimethoxy-1-[2-(4-methylpiperazin-1-yl)ethyl]-1H-indol-3-yl}-5-fluoro-1H-pyrrolo[2,3-b]pyridine] | 188
COc1cc2c(-c3cc4c(Cl)ccnc4[nH]3)cn(CCN3CCN(C)CC3)c2cc1OC [Example 101, 4-chloro-2-{5,6-dimethoxy-1-[2-(4-methylpiperazin-1-yl)ethyl]-1H-indol-3-yl}-1H-pyrrolo[2,3-b]pyridine] | 192
